Earlier results on two substances are cited in publication PMC9781794, “Polyphosphazene-Based Biomaterials for Biomedical Applications” (International Journal of Molecular Sciences, 2022).

In data set [1] the test system is bacterial species (Gram-positive, Gram-negative, and Mycobacteria). Set-up: method as in PMID 36040292. To be noted: both Gram-positive and Gram-negative strains; ref [108].
For data set [2] the following is noted: buffer.

Turning to “[N3P3(NHCy)6{Au(PPh3)}2{Ag(PPh3)}](NO3)3 [Sample 13]”, in data set [1], the anti-bacterial activity entry is on record as “excellent” and the anti-bacterial potency range entry is “nanomolar range”.
In the case of valine, the “degradation half-life (T1/2)” value in data set [2] is ~ 1 year.
